Experimental findings from US20250109107A1, “AROMATIC RING-FUSED HETEROCYCLIC RING COMPOUND AS POTASSIUM CHANNEL REGULATOR, AND PREPARATION THEREFOR AND USE THEREOF” (Shanghai Zhimeng Biopharma, Inc., priority 2022, published 2025) are described below.

This assay deals with T1, KCNQ2 potassium channels (CHO-KCNQ2 cells) (Homo sapiens, UniProt O43526).
T1 construct: expressed in transfected cells; host or cells: CHO cells stably expressing KCNQ2 (G418 selection in the culture medium)
The assay is described as follows: Potassium ion channel opener activity test (FDSS/μCELL detection, FluxOR thallium flux). The note with it: for EC50: 8 concentrations 0.045-100 μM, 3 replicate wells; for Maximum agonist rate (%): highest test concentration 100 μM, ratio of 180 s. Format: cell-based. How it is done: Example A1 Potassium Ion Channel Opener Activity Test (FDSS/p CELL Detection)
Cell preparation: CHO-KCNQ2 cells were cultured in a 175 cm^2 culture flask, and when the cell density grew to 60˜80%, the culture medium was removed and the cells were washed once with 7 mL PBS (Phosphate Buffered Saline), and then 3 mL of 0.25% Trypsin was added for digestion. After completion of digestion, 7 mL of culture medium (90% DMEM/F12+10% FBS+500 μg/mL G418) was added to neutralize, and centrifuged at 800 rpm for 3 min; the supernatant was aspirated, then 5 mL of culture medium was added to resuspend the cells, and the cells were counted.
Cell spreading: according to the cell counting results, the density was adjusted to 3×10^4 cells/well. After standing at room temperature for 30 minutes, the cells were placed in a CO2 incubator at 37° C. overnight, and incubated for 16-18 hours to reach a cell density of about 80%.
Fluorescent dye incubation: Cell culture solution was discarded, 80 μL/well of loading buffer was added and the cells were incubated for 60 minutes at room temperature and protected from light.
Compound incubation: Loading buffer was discarded, 80 μL/well of prepared compound solution was added, and the cells were incubated for 20 min at room temperature and protected from light.
Fluorescence data acquisition: Real-time fluorescence signal recording was performed using an FDSS/pCELL instrument with an excitation wavelength of 480 nm and an emission wavelength of 540 nm, and the signal was recorded once per second. 10 seconds of the baseline was recorded, then 20 μL/well of stimulation buffer was added, and the recording was continued until the end of 180 seconds.
Loading buffer: 10 mL/plate, prepared as follows:
Stimulation buffer: 5 mL/plate, prepared as follows:
The above buffers were obtained from a commercially available kit called FluxOR potassium ion channel assay.
20 mM stock solution of compound in DMSO was prepared, 10 μL of 20 mM compound stock solution was taken into 20 μL of DMSO solution, and a 3-fold serial dilution was performed to form 8 intermediate concentrations; then the intermediate concentrations of the compounds were taken respectively into test buffer, and a 200-fold dilution was performed to obtain the final concentration to be tested, and 80 μL of compound was taken and added to the assay plate.
The highest test concentration was 100 μM, and there was a total of8 concentrations. i.e., 100, 33.33, 11.11, 3.70, 1.23, 0.41, 0.137, 0.045 μM, respectively, with 3 replicate wells for each concentration.
The experimental data were analyzed by Excel 2007, GraphPad Prism 5.0 software, and the ratio of 180 s was counted to calculate the agonistic effect. The compound agonistic effect was calculated by the following equation: […]

T1 sequence (O43526 whole entry): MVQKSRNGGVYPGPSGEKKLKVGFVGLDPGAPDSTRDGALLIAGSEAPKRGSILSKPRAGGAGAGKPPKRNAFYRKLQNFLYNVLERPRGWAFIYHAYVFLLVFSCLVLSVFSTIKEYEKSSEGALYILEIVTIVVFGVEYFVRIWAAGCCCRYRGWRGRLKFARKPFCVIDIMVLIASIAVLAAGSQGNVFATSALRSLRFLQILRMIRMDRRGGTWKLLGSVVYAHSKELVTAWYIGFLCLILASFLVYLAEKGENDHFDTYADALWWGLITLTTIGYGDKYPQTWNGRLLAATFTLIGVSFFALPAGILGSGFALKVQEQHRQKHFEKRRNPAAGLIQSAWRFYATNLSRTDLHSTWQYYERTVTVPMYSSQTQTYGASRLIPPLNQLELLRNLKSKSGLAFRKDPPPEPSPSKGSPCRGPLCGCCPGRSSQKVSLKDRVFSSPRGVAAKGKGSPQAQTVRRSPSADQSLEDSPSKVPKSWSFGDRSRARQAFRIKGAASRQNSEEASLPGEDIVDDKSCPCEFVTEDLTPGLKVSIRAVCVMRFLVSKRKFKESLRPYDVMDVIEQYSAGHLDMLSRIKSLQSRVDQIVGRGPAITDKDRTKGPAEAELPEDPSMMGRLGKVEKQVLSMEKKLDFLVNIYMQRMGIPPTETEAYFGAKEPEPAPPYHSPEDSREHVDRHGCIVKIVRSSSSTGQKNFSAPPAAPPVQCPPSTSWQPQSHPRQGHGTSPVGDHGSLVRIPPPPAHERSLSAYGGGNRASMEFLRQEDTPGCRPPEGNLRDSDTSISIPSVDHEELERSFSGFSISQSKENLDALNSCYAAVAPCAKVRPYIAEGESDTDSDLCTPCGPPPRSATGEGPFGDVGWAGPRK

On to `Cc1cc2c(c(C)c1NC(=O)CC1(C)CC1)CN(c1ccc(C(F)(F)F)cc1)CC2` [Compound 3002], for which the EC50 was found to be 59 nM and the “Maximum agonist rate (%)” value is listed as 38.96%.
Consider `Cc1cc2c(c(C)c1NC(=O)CC1(C)CC1)CN(c1ccc(F)cc1)CC2` [Compound 3001], for which the half-maximal effective concentration (EC50) is 400 nM and the “Maximum agonist rate (%)” value is listed as 36.30%.
